Several values for one entry are separate records, joined by “and”; a condition that tells them apart may be missing. Equal entries are not always repeated.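 1) Cells in 96-well plates. 2) Compound, 48 h, 5 concentrations. 3) Linear interpolation between surrounding doses. 4) Unreached endpoint = highest concentration. Here, GI50 denotes the concentration required for 50% inhibition of growth. TGI: total growth inhibition.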
What was measured:
Test in all cases: growth of human tumour cells (NCI), 48 h
[1] = test system: SNB-19 CNS
[2] = test system: MOLT-4 leukemia
[3] = test system: MALME-3M melanoma
[4] = test system: SK-MEL-28 melanoma
[5] = test system: KM12 colon
[6] = test system: SK-MEL-5 melanoma
[7] = test system: MDA-MB-435
[8] = test system: RPMI-8226 leukemia
[9] = test system: TK-10 renal
[10] = test system: SK-OV-3 ovarian

| Structure (SMILES) | GI50 [1] | TGI [1] | GI50 [2] | TGI [2] | GI50 [3] | TGI [3] | GI50 [4] | TGI [4] | GI50 [5] | TGI [5] | GI50 [6] | TGI [6] | GI50 [7] | TGI [7] [µM] | GI50 [8] | TGI [8] | GI50 [9] | TGI [9] | GI50 [10] | TGI [10] |
| --- | --- | --- | --- | --- | --- | --- | --- | --- | --- | --- | --- | --- | --- | --- | --- | --- | --- | --- | --- | --- |
| CN1C[C@@H]2Cn3c(c(C4=C(c5cn(C)c6ccccc56)C(=O)NC4=O)c4ccccc43)C[C@H]2C1 | 6.44 µM and 5.87 µM | 18.4 µM and 16.4 µM | 5.46 µM and 3.49 µM | 16.8 µM and 11.9 µM | 3.78 µM and 3.89 µM | 7.36 µM and 8.03 µM | 4.34 µM and 4.35 µM | 8.62 µM and 8.47 µM | 4.49 µM and 3.67 µM | 9.19 µM and 7.87 µM | 4.17 µM and 3.68 µM | 8.01 µM and 7.28 µM | 3.43 µM and 3.16 µM | 7.09 | 5.56 µM and 4.7 µM | 11.9 µM and 10.3 µM | 3.5 µM and 3.74 µM | 7.6 µM and 8.41 µM | 4.56 µM and 4.06 µM | 11.8 µM and 11.9 µM |
| COc1cc(NC(=O)NCc2ccco2)ccc1-c1ccc(NC(=O)NCc2ccco2)cc1OC | 3.22 µM | 17.2 µM | 20.3 µM | > 100 µM | 1.65 µM | 5.56 µM | 1.5 µM | 5.33 µM | 1.82 µM | > 100 µM | 0.93 µM | 21.4 µM | 4.14 µM | > 100 | > 100 µM | > 100 µM | 1.01 µM | 9.87 µM | 2.49 µM | 19.7 µM |
| CC1(C)CC([P+](c2ccccc2)(c2ccccc2)c2ccccc2)=NN1 | 5.03 µM | > 100 µM | 6.03 µM | > 100 µM | 3.43 µM | > 100 µM | 8.67 µM | > 100 µM | 1.89 µM | 45.9 µM | 3.13 µM | 17.7 µM | 2.79 µM | > 100 | 4.41 µM | > 100 µM | 1.47 µM | 16.6 µM | 11.7 µM | 68.7 µM |
| NC(=O)c1ccccc1NC(=O)c1ccccc1Cl | > 100 µM | > 100 µM | > 100 µM | > 100 µM | > 100 µM | > 100 µM | > 100 µM | > 100 µM | > 100 µM | > 100 µM | > 100 µM | > 100 µM | 58.9 µM | > 100 | > 100 µM | > 100 µM | > 100 µM | > 100 µM | > 100 µM | > 100 µM |
| Clc1ccc(CNc2nccc(-c3cnn4ncccc34)n2)cc1 | 9.73 µM | > 25 µM | 8.16 µM | > 25 µM | 8.94 µM | 23.3 µM | 5.64 µM | 17.5 µM | 5.55 µM | 15.5 µM | 5.4 µM | > 25 µM | 6.3 µM | 20.6 | 5.8 µM | 20 µM | 8.71 µM | > 23.5 µM | 11.8 µM | > 25 µM |
| NS(=O)(=O)c1ccc(-n2ncc3c(Nc4ccccc4)ncnc32)cc1 | > 100 µM | > 100 µM | 14.5 µM | 61.4 µM | 33 µM | > 100 µM | 31.6 µM | > 100 µM | 9.63 µM | 46.7 µM | 24.4 µM | > 100 µM | 46.2 µM | > 100 | 15.3 µM | 76.6 µM | 19.1 µM | > 100 µM | 99.8 µM | > 100 µM |
| c1ccc(B2OCC(C3OB(c4ccccc4)OC4COB(c5ccccc5)OC43)O2)cc1 (stereo not given) |  | > 100 µM |  | > 100 µM |  | > 100 µM |  | > 100 µM |  | > 100 µM |  | > 100 µM |  | > 100 |  | > 100 µM |  | > 100 µM |  | > 100 µM |
| CCC1(NC(=O)c2cc(F)c(F)c(F)c2F)C(=O)NC(=O)N(C(C)C)C1=O (stereo not given) | 19.6 µM | 42.2 µM | 22.6 µM | 78.8 µM | 24.9 µM | 76.3 µM | 14.5 µM | 45 µM | > 100 µM | > 100 µM | 16.8 µM | 33 µM | 15.8 µM | 36.2 | > 100 µM | > 100 µM | > 100 µM | > 100 µM | 23.2 µM | 51.1 µM |
| COc1ccc(-c2cc(-c3cccc(NS(C)(=O)=O)c3)nc(N)c2C#N)cc1 | 0.158 µM | > 84 µM | 0.235 µM | > 100 µM | 0.0417 µM | 21.8 µM | 0.18 µM | 47.2 µM | 0.118 µM | 9.12 µM | 0.113 µM | 4.92 µM | 0.0256 µM | 0.121 | 0.286 µM | 8.23 µM | 0.278 µM | > 47.5 µM | 0.0879 µM | 1.57 µM |

— PubChem BioAssay (NCI)
